Data taken from patent US20240156971A1, “METHODS AND SORTILIN BINDING CONJUGATE COMPOUNDS FOR TARGETING CANCER STEM CELLS” (TRANSFERT PLUS, SOCIÉTÉ EN COMMANDITE, priority 2021, published 2024).
Square brackets hold non-standard residues; d marks the D form. Ends that are not written are not given here. Nle = CCCC[C@H](N)C(=O)O

Key:
hBCSCs [1] = assay: Confocal microscopy of hBCSCs (DAPI, anti-α-tubulin); assay type: cell-based, human; settings: 4 μM docetaxel or 2 μM TH1902, 48 hours post-treatment; for appearance of fragmented nuclei: DAPI
Procedure: Effects of Docetaxel and TH1902 on Tubulin Polymerization. hBCSCs were grown to 80% confluence on pre-coated 18 mm microscope cover slips (Celprogen, #E36102-29-CS18), rinsed with PBS and exposed to serum-free culture medium containing vehicle (DMSO), 4 μM docetaxel or 2 μM TH1902 at 37° C. Following incubation for 2 hours the cells were rinsed with complete culture medium and incubated in fresh complete medium for 48 hours. Cells were then washed with PHEM buffer (60 mM Pipes, 25 mM HEPES, 10 mM EGTA and 2 mM MgCl2, pH 6.9) and fixed for 15 minutes with 4% paraformaldehyde, then permeabilized with 1% Triton™ X-100 in PHEM buffer for 5 minutes and washed again with PHEM buffer. The cells were blocked in PBS (2.6 mM KCl, 1.4 mM KH2PO4, 136.9 mM NaCl and 6.5 mM Na2HPO4·7H2O; pH 7.2) containing 10% normal goat serum and 0.05% Triton™ and then incubated for 1 hour with 1:2000 anti-α-Tubulin primary monoclonal antibody (clone B-5-1-2, Sigma-Aldrich; #T5168) diluted in washing buffer (PBS containing 5% normal goat serum and 0.025% Triton). Cells were washed with washing buffer and incubated for 1 hour with Alexa Fluor™ 488-conjugated goat anti-mouse secondary antibody (1:1000; Invitrogen; #A-11001), washed with diluted blocking buffer, stained with DAPI ([…] in PBS, Invitrogen; #D1306) for 3 minutes, washed again in washing blocking buffer and mounted onto slides using Prolong™ Gold antifade reagent (Invitrogen, P36934). Cell images were finally digitalized by confocal microscopy (Nikon A1) and analyzed using NIH ImageJ™ Version 1.4.21 software. The excitation and emission wavelengths used for Alexa Fluor™ 488 were 488 nm and 525 nm, respectively; the excitation and emission wavelengths used for DAPI were 404 nm and 450 nm, respectively.

MDA-MB-231/luc cells = assay: Cell cycle analysis (G2/M) of MDA-MB-231/luc cells; assay type: cell-based, human; settings: MDA-MB-231 cells
Procedure: (§1) Cell Cycle Analysis Following Treatment of hBCSC by Test Articles. hBCSCs (2.8×10^5 cells/well) and MDA-MB-231/luc cells (2.3×10^5 cells/well) were seeded in 6-well plates one day prior to treatment. To test the effects of Docetaxel and TH1902 on cell cycle phases, hBCSCs and MDA-MB-231/luc cells were treated for 2 hours in serum-free media with vehicle (DMSO), 4 μM docetaxel or 2 μM TH1902 (equimolar of docetaxel), rinsed with complete media and incubated in fresh complete media for 22 and 48 hours. For the experiments with the P-gp inhibitors, hBCSCs were first pre-treated for 30 minutes in serum-free media with vehicle (DMSO), or 10 μM cyclosporine A or PSC-833 (P-gp inhibitors). Next, cells were treated for 2 hours with 4 μM docetaxel or 2 μM TH1902 in the continued presence or absence of the P-gp inhibitors before being rinsed and incubated in fresh complete media in the continued presence or absence of the P-gp inhibitors. Cells were then incubated for 22 and 48 hours. In both assays, following the incubation, cells were detached with trypsin, fixed with ice-cold 70% EtOH and kept overnight at 4° C. Cells were washed once with PBS, after which they were stained for 30 minutes at room temperature with FxCycle™ PI/RNase Staining Solution (Thermo Scientific, Waltham, MA; #F10797). Cells were finally subjected to cell cycle analysis using a BD Accuri™ C6 flow cytometer.

[2] = test system: MDA-MB-231/luciferase tumor xenografts; assay: Cancer relapse in MDA-MB-231/luciferase xenograft mouse model of TNBC; assay type: in vivo, mice; settings: treated at day 0, 7, 14 and 21; for cancer relapse at later time points (day 74): assessed up to day 74
Procedure: It was then assessed whether treatment with docetaxel or TH1902 could prevent cancer relapse using the MDA-MB-231/luciferase xenograft mouse model of TNBC. The MDA-MB-231 tumor cell has been reported to have cells with cancer stem cell (CSC)-like properties (Sleeboom et al., Int J Mol Sci. 2018 October; 19(10): 3047; Ghanbari et al., Int. J. Morphol., 34(4):1197-1202, 2016). Mice with MDA-MB-231/luciferase tumor xenografts were treated a day 0, 7, 14 and 21 with either vehicle (control), Docetaxel or TH1902 and tumor growth was assessed up to day 74.

hBCSC xenografts = assay: Growth of hBCSC xenografts in mice; assay type: in vivo; settings: for growth of tumors originating from breast CSCs: weekly i.v., TH1902 at doses equivalent to 1, 1.25 or 1.5 the MTD of docetaxel, docetaxel 15 mg/kg (MTD)
Description: In vivo Assessment of Docetaxel and TH1902 Anti-Tumor Efficacy. Tumor xenografts were established by subcutaneous inoculation of 10^3 hBCSC cells, hOvCSC and hPCSC resuspended in […] of HBSS containing 50% Matrigel™, into the right flank of NCG triple immunodeficient female mice (Charles River, Saint-Constant QC) under light isoflurane anesthesia. Three days following implantation of either hBCSC or hOvCSCS, mice commenced receiving weekly treatment by intravenous bolus injections of vehicle (10% polysorbate-80, 5% dextrose, 0.04% formic acid pH 4.3), docetaxel (15 mg/kg (the MTD for this agent) or 3.75 mg/kg (¼ MTD for this agent), dissolved in 5% dextrose, 3.3% ethanol, 1.7% Tween™-80) or TH1902 (35 mg/kg or 8.75 mg/kg) dissolved in vehicle. Note that the two TH1902 and docetaxel concentrations contain equimolar amounts of docetaxel due to the two docetaxel moieties per TH1902 molecule. Tumor growth was measured using two-dimensional measurements taken with an electronic caliper, and tumor volume was calculated according to the following formula: tumor volume (mm^3)=π/6×length×width^2. Animal weights were measured three times per week with a precision of 10 mg.

hBCSCs [3] = assay: Cell cycle analysis (G2/M) of hBCSCs with or without P-gp inhibitors; assay type: cell-based, human
Procedure: as §1

CC(=O)O[C@@]12CO[C@@H]1C[C@H](O)[C@@]1(C)C(=O)[C@H](O)C3=C(C)[C@@H](OC(=O)[C@H](O)[C@@H](NC(=O)OC(C)(C)C)c4ccccc4)C[C@@](O)([C@@H](OC(=O)c4ccccc4)[C@H]21)C3(C)C [docetaxel, reference compound]
cell morphology change versus vehicle-treated cells (hBCSCs [1]): visible morphology change | enlargement of cells and re-organization of the microtubules (tubulin labelling) (hBCSCs [1]): present in some | appearance of fragmented nuclei (hBCSCs [1]): not seen | G2/M cell cycle arrest at 22 h (MDA-MB-231/luc cells): not | tumor growth during and shortly after administration [2]: reduction in tumor growth | cancer relapse at later time points (day 74) [2]: tumor resurgence was observed | growth of tumors originating from breast CSCs (hBCSC xenografts): no significant reduction of tumor growth

Acetyl-GVRAK(docetaxel)AGVRN(Nle)FK(docetaxel)SESY (Ac-GVRAK(docetaxel)AGVRN[Nle]FK(docetaxel)SESY) [TH1902]
cell morphology change versus vehicle-treated cells (hBCSCs [1]): visible morphology change | enlargement of cells and re-organization of the microtubules (tubulin labelling) (hBCSCs [1]): more evident | appearance of fragmented nuclei (hBCSCs [1]): fragmented nuclei in many of the cells | G2/M cell cycle arrest at 22 h (MDA-MB-231/luc cells): some G2/M cell cycle arrest being detected at 22 h | G2/M cell cycle arrest in the presence of CsA (hBCSCs [3]; 10 μM CsA, 4 μM docetaxel or 2 μM TH1902): no effect | G2/M cell cycle arrest in the presence of PCC-831 (hBCSCs [3]; 10 μM inhibitor, 4 μM docetaxel or 2 μM TH1902): no effect | proportion of cells in G2/M phase (hBCSCs [3]; no efflux inhibitor, 4 μM docetaxel or 2 μM TH1902, FIG. 6C-D): strong increase in the proportion of cells in G2/M phase | tumor growth during and shortly after administration [2]: reduction in tumor growth | cancer relapse at later time points (day 74) [2]: No residual tumor could be detected | tumor growth curve at 8.75 mg/kg TH1902 (eq. to 1/4 of docetaxel MTD) (hBCSC xenografts; hBCSC xenografts, weekly, FIG. 8A): virtual overlap between the 15 mg/kg docetaxel curve and the 8.75 mg/kg TH1902 curve | growth of tumors originating from breast CSCs (hBCSC xenografts): significant inhibition of the growth of tumors
